This is an account of results in patent publication EP0111607A1, “Tropyl and pseudotropyl alkyl-benzoates and their use in migraine treatment” (MERRELL TORAUDE ET COMPAGNIE, priority 1982, dated 1984).

The term pA2 denotes a measure of antagonist potency on a negative log scale.

One test has as its target T1, 5-HT M-receptor (Oryctolagus cuniculus, UniProt G1TUQ4).
T1 sequence (G1TUQ4 24-513): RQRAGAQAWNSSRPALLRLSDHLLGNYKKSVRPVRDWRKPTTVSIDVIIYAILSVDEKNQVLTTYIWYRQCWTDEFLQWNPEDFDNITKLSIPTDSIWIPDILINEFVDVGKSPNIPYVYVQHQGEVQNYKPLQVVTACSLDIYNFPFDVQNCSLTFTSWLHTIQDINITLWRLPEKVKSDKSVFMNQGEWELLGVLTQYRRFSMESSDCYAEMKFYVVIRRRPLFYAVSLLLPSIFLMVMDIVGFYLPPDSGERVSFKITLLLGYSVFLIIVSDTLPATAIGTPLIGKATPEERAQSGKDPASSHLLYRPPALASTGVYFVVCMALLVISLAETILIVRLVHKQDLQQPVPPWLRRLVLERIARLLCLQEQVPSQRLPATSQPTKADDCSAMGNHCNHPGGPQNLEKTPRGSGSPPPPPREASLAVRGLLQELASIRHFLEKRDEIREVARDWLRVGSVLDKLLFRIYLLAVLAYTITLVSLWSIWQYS
Assay: not given
The following applies: 5-HT M-receptor antagonism; reported by Fozard et al., Eur. J. Pharmacol. 59(1979) and 49(1978), same procedure; cited from earlier work.
For the molecule `CCN(CC)CCNC(=O)c1cc(Cl)c(N)cc1OC` [metoclopramide], the pA2 is given as 7.2.

With `COC(=O)[C@H]1[C@@H](OC(=O)c2ccccc2)C[C@@H]2CC[C@H]1N2` [nor(-)cocaine], the pA2 is 7.7. Take `CN1C2CCC1CC(OC(=O)c1ccccc1)C2` (stereo not shown) [pseudotropyl benzoate]: the pA2 was 7.0. Turning to `CN1[C@@H]2CC[C@H]1C[C@@H](OC(=O)c1ccccc1)C2` [tropyl benzoate], the pA2 was 7.2.

The same test, now with this note: 5-HT M-receptor antagonism; tests referred to with European Patent Application No. 82401060.7; cited from earlier work.
On to `COc1cc(C(=O)OC2CC3CCC(C2)N3C)cc(OC)c1OC` (stereo not shown) [pseudotropyl-3,4,5-trimethoxybenzoate], for which the pA2 is reported as 5.7. Consider `COc1cc(OC)cc(C(=O)OC2CC3CCC(C2)N3C)c1` (stereo not shown) [pseudotropyl-3,5-dimethoxybenzoate], for which the pA2 is 6.6. As to `COc1ccc(C(=O)O[C@H]2C[C@H]3CC[C@@H](C2)N3C)cc1OC` [tropyl 3,4-dimethoxybenzoate], the pA2 is on record as 7.2. Regarding `CN1C2CCC1CC(OC(=O)c1ccc(Cl)cc1)C2` (stereo not shown) [tropyl 4-chlorobenzoate], the pA2 is on record as 7.0. As to `Cc1ccc(C(=O)O[C@H]2C[C@H]3CC[C@@H](C2)N3C)cc1` [tropyl 4-methylbenzoate], the pA2 is 7.8. On to `CN1C2CCC1CC(OC(=O)c1ccc(Cl)c(Cl)c1)C2` (stereo not shown) [tropyl-3,4-dichlorobenzoate], for which the pA2 is given as 7.8.

A further test addresses T1, 5-HT M-receptor. Nature of the test: pA2 against 5-HT in the isolated rabbit heart. The following applies: Table II, representative compounds of Formula I. The method, then: The activity of the compounds against 5-HT can be assessed by determining their pA2 values in the isolated rabbit heart as described by Fozard et at Europ. J. Pharmacol. 59, 195-210 (1979). In the method described the molar concentration of antagonist which reduces the effects of twice the ED50 of 5-HT to that of the ED50 in the absence of antagonist is determined. The pA2 value is the negative logarithm of said molar concentrations.
With `Cc1cc(C)cc(C(=O)OC2CC3CCC(C2)N3C)c1` (stereo not drawn) [pseudotropyl 3,5-dimethylbenzoate, 3,5-DIMETHYL-BENZOIC ACID EXO-8-METHYL-8-AZABICYCLO[3,2,1]OCT-3-YL ESTER], the “pA2 5-HT” value is 8.9.

For `Cc1ccc(C(=O)OC2CC3CCC(C2)N3C)c(C)c1` (stereo not shown) [tropyl 2,4-dimethylbenzoate], the “pA2 5-HT” value is reported as 8.8. As to `Cc1ccc(C)c(C(=O)OC2CC3CCC(C2)N3C)c1` (stereo not shown) [tropyl 2,5-dimethylbenzoate], the “pA2 5-HT” value came to 8.6. As for `Cc1ccccc1C(=O)OC1CC2CCC(C1)N2C` (stereo not shown) [tropyl 2-methylbenzoate], the “pA2 5-HT” value is on record as 8.1. On to `Cc1ccc(C(=O)OC2CC3CCC(C2)N3C)cc1C` (stereo not drawn) [tropyl 3,4-dimethylbenzoate, 3,4-DIMET[…] ENDO-8-METHYL-8-AZABICYCLO[3,2,1]OCT-3-YL ESTER], for which the “pA2 5-HT” value was 8.2.

The same test, now with this note: Table III, related compounds for comparative purposes.
As for `CN1C2CCC1CC(OC(=O)c1ccccc1)C2` (stereo not shown) [pseudotropyl benzoate], the “pA2 5-HT” value is on record as 7.0. Regarding `CN1C2CCC1CC(OC(=O)c1ccc(Cl)c(Cl)c1)C2` (stereo not shown) [pseudotropyl-3,4-dichlorobenzoate], the “pA2 5-HT” value was 7.5. Turning to `CN1C2CCC1CC(OC(=O)c1ccc(Cl)cc1)C2` (stereo not shown) [pseudotropyl-4-chlorobenzoate], the “pA2 5-HT” value was found to be 6.7.

For `Cc1cccc(C(=O)OC2CC3CCC(C2)N3C)c1` (stereo not shown) [tropyl 3-methylbenzoate], the “pA2 5-HT” value came to 8.1.
